The results in this text go back to US9539270B2, “Methods for providing sialylated oligosaccharides” (priority 2011, dated 2017).

The target of the experiment is T1, Trypanosoma cruzi trans-sialidase (TcTS) (Trypanosoma cruzi, UniProt Q26966).
T1 construct: 6xHis (N); made in house; host or cells: E. coli TOP10 or BL21(DE3)
The experiment is described as follows: Affinity of TcTS for the sialic acid donor substrates (kinetic incubations with lactose as acceptor). Format: biochemical. Conditions: TcTS 4.5 mU/ml; 0.1-10.0 mM 4MU-Neu5Ac as donor; 1 mM lactose as acceptor. The method, then:
In kinetic experiments with partially purified TcTS, 4MU-Neu5Ac or industrially available κ-casein-derived glycomacropeptide (GMP) as donors and lactose as acceptor, the formation of 3′SL was quantitatively determined after 15 and 30 min of incubation, making use of high-pH anion-exchange chromatography with pulsed amperometric detection (HPAEC-PAD). For both donors, the optimal temperature for the transfer reaction, deduced from a series of temperatures ranging from 15-50° C., with increments of 5° C., turned out to be 25° C., which is similar to the optimal temperature reported in literature (Scudder et al., J. Biol. Chem. 268: 9886-9891, 1993).
The affinity of TcTS for the sialic acid donor substrates 4MU-Neu5Ac and GMP was tested by performing incubations (4.5 mU/ml) with an appropriate range of these substrates and a fixed concentration of lactose as acceptor.

T1 sequence (Q26966 entry or part of it): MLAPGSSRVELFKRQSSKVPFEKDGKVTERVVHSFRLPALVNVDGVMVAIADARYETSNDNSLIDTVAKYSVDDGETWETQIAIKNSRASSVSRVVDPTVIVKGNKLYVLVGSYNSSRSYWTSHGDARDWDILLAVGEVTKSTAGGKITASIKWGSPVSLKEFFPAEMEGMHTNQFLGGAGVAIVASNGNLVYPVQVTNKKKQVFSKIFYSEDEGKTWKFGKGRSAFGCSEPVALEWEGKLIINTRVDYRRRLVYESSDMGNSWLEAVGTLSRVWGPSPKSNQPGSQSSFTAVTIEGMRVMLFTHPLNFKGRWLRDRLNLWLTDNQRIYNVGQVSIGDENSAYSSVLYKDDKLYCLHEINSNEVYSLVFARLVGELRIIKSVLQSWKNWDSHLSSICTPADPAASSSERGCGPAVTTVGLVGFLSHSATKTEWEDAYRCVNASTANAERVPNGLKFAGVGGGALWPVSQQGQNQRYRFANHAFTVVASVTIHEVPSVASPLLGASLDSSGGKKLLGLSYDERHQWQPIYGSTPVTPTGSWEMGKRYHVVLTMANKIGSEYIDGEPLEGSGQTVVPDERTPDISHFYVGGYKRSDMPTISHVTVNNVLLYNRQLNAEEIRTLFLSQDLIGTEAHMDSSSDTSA

Regarding `CC(=O)N[C@H]1[C@H]([C@H](O)[C@H](O)CO)OC(Oc2ccc3c(C)cc(=O)oc3c2)(C(=O)O)C[C@@H]1O` (stereo partly drawn) [4MU-Neu5Ac, 2′-(4-methylumbelliferyl)-α-N-acetylneuraminic acid], the Km came to 1650 µM and the Vmax is 1.5 U/mg.
